Assay results from patent publication US20100022491A1, “4-HYDROXY-2-OXO-2,3-DIHYDRO-1,3-BENZOTHIAZOL-7YL COMPOUNDS FOR MODULATION OF B2-ADRENORECEPTOR ACTIVITY” (ASTRAZENECA AB, priority 2006, published 2010).
Where a name gives a salt, the structure may show the parent alone.

Assays:
[1] = molecular target: T1, recombinant human Dopamine Subtype D2s receptors (Homo sapiens, UniProt P14416); test: Dopamine D2 selectivity binding assay ([3H]-spiperone); conditions: inhibition of [3H]-spiperone (0.16 nM) binding; for IC50: read-out: D2 bind pIC50 (converted)
T1 construct: purchased Perkin Elmer
T1 sequence (P14416 1-414 isoform P14416-2): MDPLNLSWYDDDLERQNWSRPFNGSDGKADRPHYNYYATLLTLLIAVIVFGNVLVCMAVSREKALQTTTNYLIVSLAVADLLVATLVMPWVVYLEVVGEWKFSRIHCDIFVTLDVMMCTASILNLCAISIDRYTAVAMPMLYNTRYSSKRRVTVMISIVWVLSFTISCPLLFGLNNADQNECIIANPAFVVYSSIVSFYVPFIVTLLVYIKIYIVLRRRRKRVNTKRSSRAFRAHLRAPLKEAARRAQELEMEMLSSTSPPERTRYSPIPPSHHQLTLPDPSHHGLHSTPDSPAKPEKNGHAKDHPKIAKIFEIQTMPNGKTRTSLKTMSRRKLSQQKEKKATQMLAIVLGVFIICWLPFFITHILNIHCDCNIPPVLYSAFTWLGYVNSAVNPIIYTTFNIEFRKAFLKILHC
Method in brief: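 Recombinant human D2s membranes incubated 2 h at room temperature with 0.16 nM [3H]-spiperone in HEPES/EDTA/NaCl/gelatin buffer, pH 7.4; 10 μM haloperidol defined non-specific binding. Filter-bound radioactivity counted after cold washes. pIC50 from 4-parameter logistic fit of NSB-corrected specific binding.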

[2] = molecular target: T2, recombinant human α1D receptor (Homo sapiens, UniProt P25100); test: Adrenergic α1D selectivity binding assay ([3H]-prazosin); conditions: inhibition of [3H]-prazosin (0.3 nM) binding, HEK293 membranes; for IC50: read-out: α1 bind pIC50 (converted)
T2 construct: expressed in transfected cells; host or cells: HEK293
T2 sequence (P25100 1-572): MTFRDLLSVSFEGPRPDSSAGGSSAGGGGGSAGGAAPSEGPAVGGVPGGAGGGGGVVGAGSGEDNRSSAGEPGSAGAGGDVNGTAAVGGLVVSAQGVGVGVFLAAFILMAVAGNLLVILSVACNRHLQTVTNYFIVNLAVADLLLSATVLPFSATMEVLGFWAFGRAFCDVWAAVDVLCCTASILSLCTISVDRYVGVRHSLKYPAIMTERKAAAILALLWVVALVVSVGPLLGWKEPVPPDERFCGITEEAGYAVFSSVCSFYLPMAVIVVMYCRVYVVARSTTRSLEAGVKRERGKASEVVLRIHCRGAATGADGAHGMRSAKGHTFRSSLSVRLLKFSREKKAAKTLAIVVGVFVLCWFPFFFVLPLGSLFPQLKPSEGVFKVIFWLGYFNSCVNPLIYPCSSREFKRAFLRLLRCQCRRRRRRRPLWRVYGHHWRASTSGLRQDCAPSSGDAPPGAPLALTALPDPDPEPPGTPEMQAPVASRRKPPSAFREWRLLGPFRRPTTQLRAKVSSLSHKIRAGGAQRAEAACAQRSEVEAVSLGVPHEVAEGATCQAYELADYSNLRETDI
Method in brief: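 HEK293 membranes with recombinant human α1D receptor incubated 2 h at room temperature with 0.3 nM [3H]-prazosin and compound in 50 mM HEPES, 1 mM EDTA, 0.1% gelatin, pH 7.4; BMY7378 (10 μM) defined non-specific binding. Filter-bound radioactivity counted; pIC50 from four-parameter logistic fit.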

SMILES	IC50 [1]	IC50 [2]	D2 bind pIC50 [1]	α1 bind pIC50 [2]
O=C(CCNCCc1cccc(Cl)c1)N(CCNCCc1ccc(O)c2[nH]c(=O)sc12)C1CCCCC1 [Example 12, N^3-[2-(3-Chlorophenyl)ethyl]-N-cyclohexyl-N-(2-{[2-(4-hydroxy-2-oxo-2,3-dihydro-1,3-benzothiazol-7-yl)ethyl]amino}ethyl)-β-alaninamide bis-trifluoroacetic acid salt]	50.1 nM	200 nM		
O=C(CCNCCc1cccc(Cl)c1)N(CCNCCc1ccc(O)c2[nH]c(=O)sc12)C1CCC(F)(F)CC1 [Example 47, N^3-[2-(3-Chlorophenyl)ethyl]-N^1-(4,4-difluorocyclohexyl)-N^1-(2-{[2-(4-hydroxy-2-oxo-2,3-dihydro-1,3-benzothiazol-7-yl)ethyl]amino}ethyl)-β-alaninamide bis-trifluoroacetic acid salt]	158 nM	501 nM		
O=C(CCNCCc1ccc(F)cc1)N(CCNCCc1ccc(O)c2[nH]c(=O)sc12)CC12CC3CC(CC(C3)C1)C2 [Example 61, N^1-(1-Adamantylmethyl)-N^3-[2-(4-fluorophenyl)ethyl]-N^1-(2-{[2-(4-hydroxy-2-oxo-2,3-dihydro-1,3-benzothiazol-7-yl)ethyl]amino}ethyl)-β-alaninamide bis-trifluoroacetic acid salt]	794 nM	316 nM		
O=C(CCNCCc1c(F)cccc1F)N(CCNCCc1ccc(O)c2[nH]c(=O)sc12)C1CCCCCC1 [Example 84, N^1-Cycloheptyl-N^3-[2-(2,6-difluorophenyl)ethyl]-N^1-(2-{[2-(4-hydroxy-2-oxo-2,3-dihydro-1,3-benzothiazol-7-yl)ethyl]amino}ethyl)-β-alaninamide bis-trifluoroacetic acid salt]	79.4 nM	100 nM		
Cc1ccccc1CCNCCC(=O)N(CCNCCc1ccc(O)c2[nH]c(=O)sc12)C1CCOCC1 [Example 27, N-(2-{[2-(4-Hydroxy-2-oxo-2,3-dihydro-1,3-benzothiazol-7-yl)ethyl]amino}ethyl)-N^3-[2-(2-methylphenyl)ethyl]-N-(tetrahydro-2H-pyran-4-yl)-β-alaninamide bis-trifluoroacetic acid salt]	3160 nM	251 nM		
O=C(CCNCCc1ccccc1)N(CCNCCc1ccc(O)c2[nH]c(=O)sc12)CC12CC3CC(CC(C3)C1)C2 [Example 59, N^1-(1-Adamantylmethyl)-N^1-(2-{[2-(4-hydroxy-2-oxo-2,3-dihydro-1,3-benzothiazol-7-yl)ethyl]amino}ethyl)-N^3-(2-phenylethyl)-β-alaninamide bis-trifluoroacetic acid salt]	398 nM	100 nM		
CCCC[C@H](C)N(CCNCCc1ccc(O)c2[nH]c(=O)sc12)C(=O)CCNCCc1ccccc1 [Example 102, N-(2-{[2-(4-Hydroxy-2-oxo-2,3-dihydro-1,3-benzothiazol-7-yl)ethyl]amino}ethyl)-N-[(1S)-1-methylpentyl]-N^3-(2-phenylethyl)-β-alaninamide bis-trifluoroacetic acid salt]	79.4 nM	100 nM		
O=C(CCNCCc1ccc(Cl)c(Cl)c1)N(CCNCCc1ccc(O)c2[nH]c(=O)sc12)C1CCOCC1 [Example 94, N^3-[2-(3,4-Dichlorophenyl)ethyl]-N-(2-{[2-(4-hydroxy-2-oxo-2,3-dihydro-1,3-benzothiazol-7-yl)ethyl]amino}ethyl)-N-(tetrahydro-2H-pyran-4-yl)-β-alaninamide dihydrobromide salt]			6.1	6.2
O=C(CCNCCc1ccc(F)c(F)c1)N(CCNCCc1ccc(O)c2[nH]c(=O)sc12)C1CCCCCC1 [Example 53, N^1-Cycloheptyl-N^1-[2-(3,4-difluorophenyl)ethyl]-N^1-(2-{[2-(4-hydroxy-2-oxo-2,3-dihydro-1,3-benzothiazol-7-yl)ethyl]amino}ethyl)-β-alaninamide bis-trifluoroacetic acid salt]	79.4 nM	126 nM		
CC(C)(C)CN(CCNCCc1ccc(O)c2[nH]c(=O)sc12)C(=O)CCNC(C)(C)Cc1ccccc1 [Example 38, N^3-(1,1-Dimethyl-2-phenylethyl)-N-(2,2-dimethylpropyl)-N-(2-{[2-(4-hydroxy-2-oxo-2,3-dihydro-1,3-benzothiazol-7-yl)ethyl]amino}ethyl)-β-alaninamide bis-trifluoroacetic acid salt]	794 nM	794 nM		
O=C(CCNCCc1cccc(F)c1)N(CCNCCc1ccc(O)c2[nH]c(=O)sc12)C1CCCCC1 [Example 96, N-Cyclohexyl-N^3-[2-(3-fluorophenyl)ethyl]-N-(2-{[2-(4-hydroxy-2-oxo-2,3-dihydro-1,3-benzothiazol-7-yl)ethyl]amino}ethyl)-β-alaninamide dihydrobromide salt]	398 nM	200 nM		
CC(C)(C)CN(CCNCCc1ccc(O)c2[nH]c(=O)sc12)C(=O)CCNCCc1ccc(Cl)cc1 [Example 8, N^3-[2-(4-Chlorophenyl)ethyl]-N-(2,2-dimethylpropyl)-N-(2-{[2-(4-hydroxy-2-oxo-2,3-dihydro-1,3-benzothiazol-7-yl)ethyl]amino}ethyl)-β-alaninamide bis-trifluoroacetic acid salt]	398 nM	501 nM		
COc1ccc(CCNCCC(=O)N(CCNCCc2ccc(O)c3[nH]c(=O)sc23)C2CCCCC2)cc1 [Example 68, N^1-Cyclohexyl-N^1-(2-{[2-(4-hydroxy-2-oxo-2,3-dihydro-1,3-benzothiazol-7-yl)ethyl]amino}ethyl)-N^3-[2-(4-methoxyphenyl)ethyl]-β-alaninamide bis-trifluoroacetic acid salt]	50.1 nM	200 nM		
CCCC(CCC)N(CCNCCc1ccc(O)c2[nH]c(=O)sc12)C(=O)CCNCCc1cccc(F)c1 [Example 63, N^3-[2-(3-Fluorophenyl)ethyl]-N^1-(2-{[2-(4-hydroxy-2-oxo-2,3-dihydro-1,3-benzothiazol-7-yl)ethyl]amino}ethyl)-N^1-(1-propylbutyl)-β-alaninamide bis-trifluoroacetic acid salt]	200 nM	158 nM		
CC(CN(C(=O)CCNCCc1ccccc1)C1CCCCC1)NCCc1ccc(O)c2[nH]c(=O)sc12 (stereo not drawn) [Example 105, N-Cyclohexyl-N-(2-{[2-(4-hydroxy-2-oxo-2,3-dihydro-1,3-benzothiazol-7-yl)ethyl]amino}propyl)-N^3-(2-phenylethyl)-β-alaninamide bis-trifluoroacetic acid salt]	316 nM	79.4 nM		
COc1cccc(CCNCCC(=O)N(CCNCCc2ccc(O)c3[nH]c(=O)sc23)CC(C)(C)C)c1 [Example 43, N^1-(2,2-Dimethylpropyl)-N^1-(2-{[2-(4-hydroxy-2-oxo-2,3-dihydro-1,3-benzothiazol-7-yl)ethyl]amino}ethyl)-N^3-[2-(3-methoxyphenyl)ethyl]-β-alaninamide bis-trifluoroacetic acid salt]	200 nM	158 nM		
O=C(CCNCCc1ccc(O)cc1)N(CCNCCc1ccc(O)c2[nH]c(=O)sc12)C1CCCCC1 [Example 34, N-Cyclohexyl-N-(2-{[2-(4-hydroxy-2-oxo-2,3-dihydro-1,3-benzothiazol-7-yl)ethyl]amino}ethyl)-N^3-[2-(4-hydroxyphenyl)ethyl]-β-alaninamide bis-trifluoroacetic acid salt]	398 nM	200 nM		
O=C(CCNCCc1cc(F)cc(F)c1)N(CCNCCc1ccc(O)c2[nH]c(=O)sc12)C1CCCCC1 [Example 78, N^1-Cyclohexyl-N^3-[2-(3,5-difluorophenyl)ethyl]-N^1-(2-{[2-(4-hydroxy-2-oxo-2,3-dihydro-1,3-benzothiazol-7-yl)ethyl]amino}ethyl)-β-alaninamide bis-trifluoroacetic acid salt]	316 nM	251 nM		
O=C(CCNCCc1ccccc1)N(CCNCCc1ccc(O)c2[nH]c(=O)sc12)C1CCCCCC1 [Example 23, N-Cycloheptyl-N-(2-{[2-(4-hydroxy-2-oxo-2,3-dihydro-1,3-benzothiazol-7-yl)ethyl]amino}ethyl)-N^3-(2-phenylethyl)-β-alaninamide bis-trifluoroacetic acid salt]	251 nM			7.2
O=C(CCNCCc1ccccc1)N(CCNCCc1ccc(O)c2[nH]c(=O)sc12)C1CCCC1 [Example 2, N-Cyclopentyl-N-(2-{[2-(4-hydroxy-2-oxo-2,3-dihydro-1,3-benzothiazol-7-yl)ethyl]amino}ethyl)-N^3-(2-phenylethyl)-β-alaninamide bis-trifluoroacetic acid salt]	251 nM	126 nM		
